Measurements reported in patent US20230265151A1, “GIP/GLP1 CO-AGONIST COMPOUNDS” (priority 2020, published 2023).
Like-named read-outs stand apart in the source and are kept apart here. *1 amine or outer side, *2 acyl side, *3 side chain or, on linkers, in order; H or OH if unused. Where a SMILES comes first, the peptide text is derived from it. Side-chain parts run from the residue outwards. [ ]: non-standard residue; d: D form. The star is where a group is joined. Butanoyl(4-(4-tBuPh)) = CC(C)(C)c1ccc(CCCC(=O)*)cc1; αMePhe(2-F) = C[C@](N)(Cc1ccccc1F)C(=O)O; γGlu = O=C(O)[C@H](CCC(=O)[*:2])N[*:1]; C14 diacid = O=C(O)CCCCCCCCCCCCC(=O)*; αMeY = C[C@](N)(Cc1ccc(O)cc1)C(=O)O; αMeF = C[C@](N)(Cc1ccccc1)C(=O)O; 4Pal = N[C@@H](Cc1ccncc1)C(=O)O; αMeL = CC(C)C[C@](C)(N)C(=O)O; Lauroyl = CCCCCCCCCCCC(=O)*; Orn = NCCC[C@H](N)C(=O)O; AEEA = NCCOCCOCC(=O)O; Aib = CC(C)(N)C(=O)O

Columns and labels:
Assay type in all cases: cell-based
hGLP-1R = hGLP-1R (Homo sapiens, UniProt P43220); test: Functional cAMP formation (HTRF) in HEK-293 clonal cells expressing hGLP-1R, 0.1% bovine casein, without or with 1.0% human serum albumin; design: expressed in transfected cells; conditions: for Emax: read-out: hGLP-1R Emax, % ± SEM; for EC50: read-out: hGLP-1R EC50, nM (SEM, n)
Outline: (§1)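 Cells were stimulated with peptide for 30 min at 37° C, then lysed in buffer carrying cAMP-d2 and anti-cAMP Eu3+-cryptate for a competitive HTRF read after at least 60 min at room temperature. The 665/620 nm ratio was converted to nM cAMP against a standard curve.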

hGCGR = target: T1, hGCGR (Homo sapiens, UniProt P47871); test: Functional cAMP formation (HTRF) in HEK-293 clonal cells expressing hGCGR, 0.1% bovine casein, without or with 1.0% human serum albumin; conditions: read-out: hGCGR EC50, nM (SEM, n)
T1 construct: expressed in transfected cells
Outline: as §1

hGIPR = target: T2, hGIPR (Homo sapiens, UniProt P48546); test: Functional cAMP formation (HTRF) in HEK-293 clonal cells expressing hGIPR, 0.1% bovine casein, without or with 1.0% human serum albumin; conditions: for Emax: read-out: hGIPR Emax, % ± SEM; for EC50: geometric mean, read-out: hGIPR EC50, nM (SEM, n)
T2 construct: expressed in transfected cells
T2 sequence (P48546 22-466): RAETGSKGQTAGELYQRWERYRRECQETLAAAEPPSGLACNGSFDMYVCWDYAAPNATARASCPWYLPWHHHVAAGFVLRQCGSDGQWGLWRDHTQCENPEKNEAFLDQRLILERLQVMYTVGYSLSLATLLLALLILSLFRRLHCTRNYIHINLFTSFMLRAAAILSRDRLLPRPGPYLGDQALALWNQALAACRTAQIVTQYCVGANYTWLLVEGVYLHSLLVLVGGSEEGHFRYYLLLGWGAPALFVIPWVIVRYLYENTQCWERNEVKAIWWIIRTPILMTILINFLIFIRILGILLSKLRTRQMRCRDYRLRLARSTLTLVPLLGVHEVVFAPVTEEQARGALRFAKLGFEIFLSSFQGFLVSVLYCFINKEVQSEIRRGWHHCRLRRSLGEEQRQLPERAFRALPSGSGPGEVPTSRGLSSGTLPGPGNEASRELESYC
Outline: as §1

[1] = HEK293, percent of maximal response to GLP-1(7-36)NH2, 37° C., 0.1% bovine casein, arithmetic mean
[2] = cAMP, incubated at 37° C., 0.1% bovine casein (no human serum albumin), geometric mean
[3] = HEK293, percent of maximal response to GIP(1-42)NH2, 37° C., 0.1% bovine casein, arithmetic mean
[4] = cAMP, incubated at 37° C., 0.1% bovine casein (no human serum albumin)
[5] = HEK293, cAMP, 37° C., 0.1% bovine casein, percent of maximal response to GLP-1(7-36)NH2, arithmetic mean
[6] = cAMP, 37° C., 0.1% bovine casein (no human serum albumin), geometric mean
[7] = cAMP, 37° C., 0.1% bovine casein and 1.0% human serum albumin, geometric mean (SEM, n)
[8] = cAMP, 37° C., 0.1% bovine casein (no human serum albumin)
[9] = 0.1% bovine casein and 1.0% human serum albumin, 37° C., geometric mean
[10] = HEK293, 0.1% bovine casein and 1.0% human serum albumin, 37° C., percent of maximal response to GLP-1(7-36)NH2
[11] = HEK293, 0.1% bovine casein and 1.0% human serum albumin, 37° C., percent of maximal response to GIP(1-42)NH2

T1 sequence (P47871 26-477): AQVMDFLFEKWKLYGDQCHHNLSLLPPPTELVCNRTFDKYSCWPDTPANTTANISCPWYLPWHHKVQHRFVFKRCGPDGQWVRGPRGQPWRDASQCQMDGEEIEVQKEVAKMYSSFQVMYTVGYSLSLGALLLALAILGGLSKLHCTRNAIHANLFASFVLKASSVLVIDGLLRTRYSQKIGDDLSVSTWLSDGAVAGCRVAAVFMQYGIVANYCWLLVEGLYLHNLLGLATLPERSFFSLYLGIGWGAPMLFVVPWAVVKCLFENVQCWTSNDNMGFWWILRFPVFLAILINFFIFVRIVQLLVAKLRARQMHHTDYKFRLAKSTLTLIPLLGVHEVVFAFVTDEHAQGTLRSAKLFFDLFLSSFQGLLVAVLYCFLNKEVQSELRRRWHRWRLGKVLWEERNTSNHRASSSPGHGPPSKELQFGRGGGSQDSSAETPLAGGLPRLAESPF
hGLP-1R, sequence (P43220 24-463): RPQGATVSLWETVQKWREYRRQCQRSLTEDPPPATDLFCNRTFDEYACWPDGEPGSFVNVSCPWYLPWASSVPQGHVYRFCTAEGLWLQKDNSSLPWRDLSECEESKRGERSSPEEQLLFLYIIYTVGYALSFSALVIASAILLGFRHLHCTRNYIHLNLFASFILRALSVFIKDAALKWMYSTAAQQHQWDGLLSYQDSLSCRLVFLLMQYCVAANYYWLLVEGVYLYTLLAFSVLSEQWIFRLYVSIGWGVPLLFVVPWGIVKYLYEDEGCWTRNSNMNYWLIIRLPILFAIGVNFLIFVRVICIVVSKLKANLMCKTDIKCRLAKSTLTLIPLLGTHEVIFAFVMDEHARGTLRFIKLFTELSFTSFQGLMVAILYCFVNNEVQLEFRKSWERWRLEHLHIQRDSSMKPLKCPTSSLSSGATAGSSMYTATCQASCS

## CC[C@H](C)[C@H](NC(=O)[C@H](CCCN)NC(=O)[C@H](CC(=O)O)NC(=O)[C@H](CC(C)C)NC(=O)[C@](C)(CC(C)C)NC(=O)[C@@H](NC(=O)[C@H](CO)NC(=O)[C@H](CCCCNC(=O)COCCOCCNC(=O)COCCOCCNC(=O)CC[C@H](NC(=O)CCCCCCCCCCCCC(=O)O)C(=O)O)NC(=O)[C@H](CC(=O)O)NC(=O)[C@H](CO)NC(=O)[C@@H](NC(=O)[C@](C)(Cc1ccccc1F)NC(=O)[C@@H](NC(=O)CNC(=O)[C@H](CCC(=O)O)NC(=O)C(C)(C)NC(=O)[C@@H](N)Cc1ccc(O)cc1)[C@@H](C)O)[C@@H](C)O)[C@@H](C)CC)C(=O)N[C@@H](C)C(=O)N[C@@H](CCC(N)=O)C(=O)NC(C)(C)C(=O)N[C@@H](CCC(=O)O)C(=O)N[C@@H](Cc1ccccc1)C(=O)N[C@H](C(=O)N[C@H](CCC(=O)O)C(=O)N[C@@](C)(Cc1ccc(O)cc1)C(=O)N[C@@H](CC(C)C)C(=O)N[C@H](C(=O)N[C@@H](CCC(=O)O)C(=O)NCC(=O)NCC(=O)N[C@@H](CCCCNC(=O)COCCOCCNC(=O)COCCOCCNC(=O)CC[C@H](NC(=O)CCCCCCCCCCCCC(=O)O)C(=O)O)C(=O)N[C@@H](CO)C(=O)N[C@@H](CO)C(=O)NCC(=O)N[C@@H](C)C(=O)N1CCC[C@H]1C(=O)N1CCC[C@H]1C(=O)N1CCC[C@H]1C(=O)N[C@@H](CO)C(N)=O)[C@@H](C)CC)[C@@H](C)CC [Example 108] (H-Y[Aib]EGT[αMePhe(2-F)]TSDK([AEEA-AEEA-γGlu-C14 diacid])SI[αMeL]LD[Orn]IAQ[Aib]EFI[dE][αMeY]LIEGGK([AEEA-AEEA-γGlu-C14 diacid])SSGAPPPS-NH2; N-terminus assumed)
hGLP-1R; [1]
  Emax: 97.6%
hGCGR; [2]
  EC50: > 9950 nM
hGIPR; [3]
  Emax: 85.2%
hGIPR; [4]
  EC50: 0.0249 nM

## CCCCCCCCCCCC(=O)N[C@@H](CCC(=O)NCCOCCOCC(=O)NCCOCCOCC(=O)NCCOCCOCC(=O)NCCCC[C@H](NC(=O)[C@H](CCCN)NC(=O)[C@H](CC(=O)O)NC(=O)[C@H](CC(C)C)NC(=O)[C@](C)(CC(C)C)NC(=O)[C@@H](NC(=O)C(C)(C)NC(=O)[C@H](Cc1ccncc1)NC(=O)[C@H](CC(=O)O)NC(=O)[C@H](CO)NC(=O)[C@@H](NC(=O)[C@](C)(Cc1ccccc1F)NC(=O)[C@@H](NC(=O)CNC(=O)[C@H](CCC(=O)O)NC(=O)C(C)(C)NC(=O)[C@@H](N)Cc1ccc(O)cc1)[C@@H](C)O)[C@@H](C)O)[C@@H](C)CC)C(=O)N[C@@H](C)C(=O)N[C@@H](CCC(N)=O)C(=O)NC(C)(C)C(=O)N[C@@H](CCC(=O)O)C(=O)N[C@@](C)(Cc1ccccc1)C(=O)N[C@H](C(=O)N[C@H](CCC(=O)O)C(=O)N[C@@](C)(Cc1ccc(O)cc1)C(=O)N[C@@H](CC(C)C)C(=O)N[C@H](C(=O)N[C@@H](CCCCNC(=O)COCCOCCNC(=O)COCCOCCNC(=O)COCCOCCNC(=O)CC[C@H](NC(=O)CCCCCCCCCCC)C(=O)O)C(=O)NCC(=O)NCC(=O)N1CCC[C@H]1C(=O)N[C@@H](CO)C(=O)N[C@@H](CO)C(=O)NCC(=O)N[C@@H](C)C(=O)N1CCC[C@H]1C(=O)N1CCC[C@H]1C(=O)N1CCC[C@H]1C(=O)N[C@@H](CO)C(N)=O)[C@@H](C)CC)[C@@H](C)CC)C(=O)O [Example 438] (H-Y[Aib]EGT[αMePhe(2-F)]TSD[4Pal][Aib]I[αMeL]LD[Orn]K([AEEA-AEEA-AEEA-γGlu-Lauroyl])AQ[Aib]E[αMeF]I[dE][αMeY]LIK([AEEA-AEEA-AEEA-γGlu-Lauroyl])GGPSSGAPPPS-NH2)
hGLP-1R; HEK293, cAMP, 37° C., 0.1% bovine casein and 1.0% human serum albumin, percent of maximal response to GLP-1(7-36)NH2
  Emax: 88.7%
hGLP-1R; [5]
  Emax: 88.5%
hGLP-1R; [6]
  EC50: 0.471 nM
hGLP-1R; [7]
  EC50: 28 nM
hGCGR; [6]
  EC50: > 9950 nM
hGCGR; [7]
  EC50: > 9950 nM
hGIPR; HEK293, cAMP, 37° C., 0.1% bovine casein and 1.0% human serum albumin, percent of maximal response to GIP(1-42)NH2
  Emax: 90.8%
hGIPR; HEK293, cAMP, 37° C., 0.1% bovine casein, percent of maximal response to GIP(1-42)NH2, arithmetic mean
  Emax: 98.9%
hGIPR; [8]
  EC50: 0.0157 nM

## CC[C@H](C)[C@H](NC(=O)[C@H](CCCN)NC(=O)[C@H](CC(=O)O)NC(=O)[C@H](CC(C)C)NC(=O)[C@](C)(CC(C)C)NC(=O)[C@@H](NC(=O)[C@H](CO)NC(=O)[C@H](Cc1ccncc1)NC(=O)[C@H](CC(=O)O)NC(=O)[C@H](CO)NC(=O)[C@@H](NC(=O)[C@](C)(Cc1ccccc1F)NC(=O)[C@@H](NC(=O)CNC(=O)[C@H](CCC(=O)O)NC(=O)C(C)(C)NC(=O)[C@@H](N)Cc1ccc(O)cc1)[C@@H](C)O)[C@@H](C)O)[C@@H](C)CC)C(=O)N[C@@H](C)C(=O)N[C@@H](CCC(N)=O)C(=O)NC(C)(C)C(=O)N[C@@H](CCC(=O)O)C(=O)N[C@@H](Cc1ccccc1)C(=O)N[C@H](C(=O)N[C@H](CCC(=O)O)C(=O)N[C@@](C)(Cc1ccc(O)cc1)C(=O)N[C@@H](CC(C)C)C(=O)N[C@H](C(=O)N[C@@H](CCCCNC(=O)COCCOCCNC(=O)COCCOCCNC(=O)CC[C@H](NC(=O)CCCc1ccc(C(C)(C)C)cc1)C(=O)O)C(=O)NCC(=O)NCC(=O)N1CCC[C@H]1C(=O)N[C@@H](CO)C(=O)N[C@@H](CO)C(=O)NCC(=O)N[C@@H](C)C(=O)N1CCC[C@H]1C(=O)N1CCC[C@H]1C(=O)N1CCC[C@H]1C(=O)N[C@@H](CO)C(=O)N[C@@H](CCCCNC(=O)COCCOCCNC(=O)COCCOCCNC(=O)CC[C@H](NC(=O)CCCc1ccc(C(C)(C)C)cc1)C(=O)O)C(N)=O)[C@@H](C)CC)[C@@H](C)CC [Example 206] (H-Y[Aib]EGT[αMePhe(2-F)]TSD[4Pal]SI[αMeL]LD[Orn]IAQ[Aib]EFI[dE][αMeY]LIK([AEEA-AEEA-γGlu-Butanoyl(4-(4-tBuPh))])GGPSSGAPPPSK([AEEA-AEEA-γGlu-Butanoyl(4-(4-tBuPh))])-NH2)
hGLP-1R; [9]
  EC50: 3.03 nM
hGLP-1R; [10]
  Emax: 98.1%
hGLP-1R; [1]
  Emax: 100%
hGLP-1R; [2]
  EC50: 0.299 nM
hGCGR; [9]
  EC50: > 9950 nM
hGCGR; [2]
  EC50: > 9950 nM
hGIPR; 0.1% bovine casein and 1.0% human serum albumin, 37° C.
  EC50: 0.242 nM
hGIPR; [11]
  Emax: 77.6%
hGIPR; [3]
  Emax: 96.4%
hGIPR; [4]
  EC50: 0.0204 nM

## CC[C@H](C)[C@H](NC(=O)[C@H](CCCN)NC(=O)[C@H](CC(=O)O)NC(=O)[C@H](CC(C)C)NC(=O)[C@](C)(CC(C)C)NC(=O)[C@@H](NC(=O)C(C)(C)NC(=O)[C@H](Cc1ccncc1)NC(=O)[C@H](CC(=O)O)NC(=O)[C@H](CO)NC(=O)[C@@H](NC(=O)[C@](C)(Cc1ccccc1F)NC(=O)[C@@H](NC(=O)CNC(=O)[C@H](CCC(=O)O)NC(=O)C(C)(C)NC(=O)[C@@H](N)Cc1ccc(O)cc1)[C@@H](C)O)[C@@H](C)O)[C@@H](C)CC)C(=O)N[C@@H](C)C(=O)N[C@@H](CCC(N)=O)C(=O)NC(C)(C)C(=O)N[C@@H](CCCN)C(=O)N[C@@H](Cc1ccccc1)C(=O)N[C@H](C(=O)N[C@@H](CCCCNC(=O)COCCOCCNC(=O)COCCOCCNC(=O)CC[C@H](NC(=O)CCCCCCCCCCCCC(=O)O)C(=O)O)C(=O)N[C@@](C)(Cc1ccc(O)cc1)C(=O)N[C@@H](CC(C)C)C(=O)N[C@H](C(=O)N[C@@H](CCCCNC(=O)COCCOCCNC(=O)COCCOCCNC(=O)CC[C@H](NC(=O)CCCCCCCCCCCCC(=O)O)C(=O)O)C(=O)NCC(=O)NCC(=O)N1CCC[C@H]1C(=O)N[C@@H](CO)C(=O)N[C@@H](CO)C(=O)NCC(=O)N[C@@H](C)C(=O)N1CCC[C@H]1C(=O)N1CCC[C@H]1C(=O)N1CCC[C@H]1C(=O)N[C@@H](CO)C(N)=O)[C@@H](C)CC)[C@@H](C)CC [Example 315] (H-Y[Aib]EGT[αMePhe(2-F)]TSD[4Pal][Aib]I[αMeL]LD[Orn]IAQ[Aib][Orn]FIK([AEEA-AEEA-γGlu-C14 diacid])[αMeY]LIK([AEEA-AEEA-γGlu-C14 diacid])GGPSSGAPPPS-NH2)
hGLP-1R; [10]
  Emax: 93.5%
hGLP-1R; [5]
  Emax: 98.9%
hGLP-1R; [6]
  EC50: 0.376 nM
hGCGR; [9]
  EC50: > 9950 nM
hGCGR; [6]
  EC50: > 9950 nM
hGIPR; [11]
  Emax: 89.2%
hGIPR; [8]
  EC50: 0.0245 nM
